What was measured:
[1] = target: T1, α4β1δ GABAA receptor (Homo sapiens, UniProt P18505+P48169, P48169:S303L); test: FLIPR membrane potential; format: cell-based
[2] = target: T2, α4β1δ GABAA receptor (Homo sapiens, UniProt P18505+P48169, P18505:I289Q); test: FLIPR membrane potential; format: cell-based
[3] = target: T3, α4β1δ GABAA receptor (Homo sapiens, UniProt P18505+P48169); test: FLIPR membrane potential; format: cell-based
[4] = target: T3, α4β1δ GABAA receptor; test: cell-based; design: species or system HEK293 Flp-In
[5] = target: T1, α4β1δ GABAA receptor; test: cell-based; design: species or system HEK293 Flp-In
[6] = target: T2, α4β1δ GABAA receptor; test: cell-based; design: species or system HEK293 Flp-In

T3 sequence (P48169 36-554): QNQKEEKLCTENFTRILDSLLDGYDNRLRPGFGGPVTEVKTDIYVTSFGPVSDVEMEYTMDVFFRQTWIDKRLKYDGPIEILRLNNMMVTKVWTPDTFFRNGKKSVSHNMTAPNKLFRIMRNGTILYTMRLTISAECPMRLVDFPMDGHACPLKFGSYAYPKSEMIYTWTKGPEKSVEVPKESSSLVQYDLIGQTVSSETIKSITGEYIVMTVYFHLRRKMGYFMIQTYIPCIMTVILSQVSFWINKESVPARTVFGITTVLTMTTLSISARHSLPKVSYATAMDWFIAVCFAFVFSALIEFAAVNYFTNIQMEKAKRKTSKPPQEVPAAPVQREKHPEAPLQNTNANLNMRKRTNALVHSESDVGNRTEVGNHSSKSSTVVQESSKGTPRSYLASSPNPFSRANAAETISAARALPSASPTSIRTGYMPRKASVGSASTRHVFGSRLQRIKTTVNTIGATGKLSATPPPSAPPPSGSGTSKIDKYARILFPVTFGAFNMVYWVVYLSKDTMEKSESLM
T3 sequence (P18505 26-474): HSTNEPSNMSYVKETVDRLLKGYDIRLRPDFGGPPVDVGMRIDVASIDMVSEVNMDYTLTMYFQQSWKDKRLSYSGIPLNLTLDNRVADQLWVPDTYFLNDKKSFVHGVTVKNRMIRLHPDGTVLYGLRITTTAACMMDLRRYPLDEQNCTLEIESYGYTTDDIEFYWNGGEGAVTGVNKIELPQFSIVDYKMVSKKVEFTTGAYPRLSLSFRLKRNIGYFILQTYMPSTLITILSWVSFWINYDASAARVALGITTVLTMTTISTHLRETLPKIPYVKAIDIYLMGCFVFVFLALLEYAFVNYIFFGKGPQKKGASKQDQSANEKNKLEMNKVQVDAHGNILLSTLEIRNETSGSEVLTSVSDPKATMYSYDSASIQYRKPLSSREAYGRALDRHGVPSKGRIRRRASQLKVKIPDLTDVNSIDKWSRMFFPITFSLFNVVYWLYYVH
T3 sequence (O14764 25-452 partner): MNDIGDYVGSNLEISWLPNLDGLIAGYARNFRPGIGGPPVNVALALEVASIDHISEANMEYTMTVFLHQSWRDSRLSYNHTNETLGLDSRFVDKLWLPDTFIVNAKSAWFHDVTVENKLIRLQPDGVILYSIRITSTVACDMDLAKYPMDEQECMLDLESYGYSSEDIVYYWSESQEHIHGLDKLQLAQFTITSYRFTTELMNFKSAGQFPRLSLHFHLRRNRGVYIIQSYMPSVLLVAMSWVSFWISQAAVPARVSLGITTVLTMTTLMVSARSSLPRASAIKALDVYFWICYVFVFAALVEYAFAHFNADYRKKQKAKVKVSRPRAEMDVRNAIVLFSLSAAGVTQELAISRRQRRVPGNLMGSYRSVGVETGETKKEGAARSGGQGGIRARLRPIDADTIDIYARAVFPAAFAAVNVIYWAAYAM
T2 sequence (P48169 36-554): as the sequence (P48169 36-554) above
T2 sequence (P18505 26-474 I289Q): as the sequence (P18505 26-474) above, with I264Q counted along it
T2 sequence (O14764 25-452 partner): as the sequence (O14764 25-452 partner) above
T1 sequence (P48169 36-554 S303L): as the sequence (P48169 36-554) above, with S268L counted along it
T1 sequence (P18505 26-474): as the sequence (P18505 26-474) above
T1 sequence (O14764 25-452 partner): as the sequence (O14764 25-452 partner) above

SMILES	EC50 [1]	EC50 [2]	EC50 [3]	EC50 [4]	EC50 [5]	EC50 [6]
CCOC(=O)c1cncn1[C@H](C)c1ccccc1 [etomidate, (R)-1-(1-phenylethyl)-1H-imidazole-5-carboxylic acid ethyl ester]	6.2 µM	9.3 µM	7.8 µM			
CCOC(=O)Nc1ccc(NCc2c(C)cc(C)cc2C)cc1N [AA29504, [2-amino-4-(2,4,6-trimethylbenzylamino)-phenyl]-carbamic acid ethyl ester]				0.55 µM	0.25 µM	0.76 µM
